{
  "source": "patent US20210214303A1",
  "about": "“SCORPION VENOM BENZOQUINONE DERIVATIVES AND USES THEREOF” (priority 2018, published 2021)",
  "key": {"Staphylococcus aureus [1]": {"test_system": "Staphylococcus aureus", "test": "disk-diffusion assay", "type": "cell-based", "method": "Ampicillin (5 μg) was used as a positive control.\nThis difference was confirmed using a broth microdilution assay (FIG. 3D). The minimum inhibitory concentration (MIC) for S. aureus growth was 4 μg/mL for the red 1,4 benzoquinone and 6 μg/mL for the blue 1,4 benzoquinone (FIG. 3D, Table 1). Ampicillin (MIC=0.5 μg/mL) was used as a positive control (ESCMID Eo (2003) Clin. Microbiol. Infect. 9: ix-xv; Pieterse et al., (2010) Brazil. J. Microbiol. 41: 133-145). These compounds were bactericidal at their MICs, killing 90% of S. aureus in 6 h and 99.9% in 24 h (Table 2)."}, "[2]": {"test_system": "Staphylococcus aureus ATCC 29213", "test": "Minimum inhibitory concentration, Table 1, strain ATCC 29213; for sensitive/resistant (growth): key: S Sensitive (did not grow the crop); R resistant (bacterial growth)", "type": "cell-based", "conditions": "for sensitive/resistant (growth): ATCC 29213"}, "[3]": {"test_system": "clinical isolates of methicillin-resistant S. aureus (MRSA)", "test": "Minimum inhibitory concentration, Table 1, MRSA clinical isolates; for sensitive/resistant (growth): key: S Sensitive (did not grow the crop); R resistant (bacterial growth)", "type": "cell-based, Staphylococcus aureus"}, "Staphylococcus aureus [4]": {"test_system": "Staphylococcus aureus", "test": "Time-kill assay", "type": "cell-based", "conditions": "for killing of S. aureus: at their MICs"}, "E. coli": {"test_system": "E. coli", "test": "activity against gram negative E. coli", "type": "cell-based"}, "Candida. albicans": {"test_system": "Candida. albicans", "test": "activity against pathogenic fungus", "type": "cell-based"}, "[5]": {"test_system": "Mycobacterium tuberculosis H37Rv", "test": "microbe, parasite or virus in culture", "type": "cell-based", "conditions": "M. tuberculosis H37Rv, broth microdilution"}, "fresh human erythrocytes": {"test_system": "fresh human erythrocytes", "test": "Hemolysis assay", "type": "cell-based", "conditions": "2 hours, all concentrations tested (even higher than 100 μg/mL)", "method": "FIG. 14A illustrates a cytotoxic activity assay of the red and blue 1,4 benzoquinones. Hemolysis was evaluated using fresh human erythrocytes. Lysis was evaluated by the absorbance of the supernatant at 415 nm after 2 hours of incubation with different concentrations of the 1,4 benzoquinones. Triton X-100 was used as positive control.\nHemolysis assay: The hemolytic activity was evaluated for both of the 1,4 benzoquinones using fresh human erythrocytes. Fresh human erythrocytes were washed four times with phosphate buffered saline (PBS) and incubated for 2 h at 37° C. with different concentration of the 1,4 benzoquinones. A gradient of Triton X-100 was used as positive control of hemolysis. After incubation, the erythrocytes suspension was centrifuged at 400×g for 10 min and supernatant was recovered. Hemolysis was determined by the absorbance of the supernatant at 415 nm."}, "TE671 muscle cells": {"test_system": "TE671 muscle cells", "test": "detection of intracellular reactive oxygen species with DCFH-DA", "type": "cell-based", "conditions": "25 μM, 6 hours", "method": "FIG. 16A illustrates the detection of intracellular reactive oxygen species (ROS) using the oxidant-sensing probe dichloro-dihydro-fluorescein diacetate (DCFH-DA). TE671 muscle cells were used. Cells were cultured according to the ATCC guidelines. Before treatment, cells were incubated for one hour with a 10 μM solution of DCFH-DA. After the cells were washed 3×PBS, either the red or blue 1,4 benzoquinone was administered at a concentration of 25 μM. Cells were then incubated at 37° C. in 5% CO2 for 6 hours. Following the incubation period, cells were harvested and evaluated with a Zeiss Axioskop fluorescence microscope using a 485-nm excitation and 530-nm emission filter combination. […] Treatment with hydrogen peroxide (50 μM) was used as positive control."}},
  "note": "Entries after “also recorded” stand apart in the source; their conditions may differ.",
  "data": [
    {"molecule": "COC1=CC(=O)C(SC)=C(SC)C1=O", "note": "[blue 1,4 benzoquinone, 5-methoxy-2,3-bis(methylthio)cyclohexa-2,5-diene-1,4-dione]", "values": [
      {"measurement": "inhibition of S. aureus growth", "setting": "Staphylococcus aureus [1]", "value": "clear inhibition; also recorded: inhibitory activity"},
      {"measurement": "sensitive/resistant (growth)", "setting": "[2]; 0.5 μg/ml", "value": "R"},
      {"measurement": "sensitive/resistant (growth)", "setting": "[2]; 1 μg/ml", "value": "S"},
      {"measurement": "sensitive/resistant (growth)", "setting": "[2]; 2 μg/ml", "value": "S"},
      {"measurement": "sensitive/resistant (growth)", "setting": "[2]; 4 μg/ml", "value": "S"},
      {"measurement": "sensitive/resistant (growth)", "setting": "[2]; 8 μg/ml", "value": "S"},
      {"measurement": "sensitive/resistant (growth)", "setting": "[2]; 16 μg/ml", "value": "S"},
      {"measurement": "sensitive/resistant (growth)", "setting": "[2]; 32 μg/ml", "value": "S"},
      {"measurement": "sensitive/resistant (growth)", "setting": "[2]; 64 μg/ml", "value": "S"},
      {"measurement": "MIC", "setting": "[2]; ATCC29213, Staphylococcus aureus ATCC 29213", "value": 1, "unit": "mg/L"},
      {"measurement": "MIC", "setting": "[3]; Staphylococcus aureus, MRSA", "value": "> 64", "unit": "mg/L"},
      {"measurement": "MIC", "setting": "[3]; strain 01 2075", "value": ">64", "unit": "mg/L"},
      {"measurement": "sensitive/resistant (growth)", "setting": "[3]; strain 01 2075, 0.5 μg/ml", "value": "R"},
      {"measurement": "sensitive/resistant (growth)", "setting": "[3]; strain 01 2075, 1 μg/ml", "value": "R"},
      {"measurement": "sensitive/resistant (growth)", "setting": "[3]; strain 01 2075, 2 μg/ml", "value": "R"},
      {"measurement": "sensitive/resistant (growth)", "setting": "[3]; strain 01 2075, 4 μg/ml", "value": "R"},
      {"measurement": "sensitive/resistant (growth)", "setting": "[3]; strain 01 2075, 8 μg/ml", "value": "R"},
      {"measurement": "sensitive/resistant (growth)", "setting": "[3]; strain 01 2075, 16 μg/ml", "value": "R"},
      {"measurement": "sensitive/resistant (growth)", "setting": "[3]; strain 01 2075, 32 μg/ml", "value": "R"},
      {"measurement": "sensitive/resistant (growth)", "setting": "[3]; strain 01 2075, 64 μg/ml", "value": "R"},
      {"measurement": "MIC", "setting": "[3]; strain 01 2104", "value": ">64", "unit": "mg/L"},
      {"measurement": "sensitive/resistant (growth)", "setting": "[3]; strain 01 2104, 0.5 μg/ml", "value": "R"},
      {"measurement": "sensitive/resistant (growth)", "setting": "[3]; strain 01 2104, 1 μg/ml", "value": "R"},
      {"measurement": "sensitive/resistant (growth)", "setting": "[3]; strain 01 2104, 2 μg/ml", "value": "R"},
      {"measurement": "sensitive/resistant (growth)", "setting": "[3]; strain 01 2104, 4 μg/ml", "value": "R"},
      {"measurement": "sensitive/resistant (growth)", "setting": "[3]; strain 01 2104, 8 μg/ml", "value": "R"},
      {"measurement": "sensitive/resistant (growth)", "setting": "[3]; strain 01 2104, 16 μg/ml", "value": "R"},
      {"measurement": "sensitive/resistant (growth)", "setting": "[3]; strain 01 2104, 32 μg/ml", "value": "R"},
      {"measurement": "sensitive/resistant (growth)", "setting": "[3]; strain 01 2104, 64 μg/ml", "value": "R"},
      {"measurement": "sensitive/resistant (growth)", "setting": "[3]; strain 09 3001, 0.5 μg/ml", "value": "R"},
      {"measurement": "sensitive/resistant (growth)", "setting": "[3]; strain 09 3001, 1 μg/ml", "value": "R"},
      {"measurement": "sensitive/resistant (growth)", "setting": "[3]; strain 09 3001, 2 μg/ml", "value": "R"},
      {"measurement": "sensitive/resistant (growth)", "setting": "[3]; strain 09 3001, 4 μg/ml", "value": "R"},
      {"measurement": "sensitive/resistant (growth)", "setting": "[3]; strain 09 3001, 8 μg/ml", "value": "R"},
      {"measurement": "sensitive/resistant (growth)", "setting": "[3]; strain 09 3001, 16 μg/ml", "value": "R"},
      {"measurement": "sensitive/resistant (growth)", "setting": "[3]; strain 09 3001, 32 μg/ml", "value": "R"},
      {"measurement": "sensitive/resistant (growth)", "setting": "[3]; strain 09 3001, 64 μg/ml", "value": "R"},
      {"measurement": "MIC", "setting": "[3]; strain 21 2001", "value": ">64", "unit": "mg/L"},
      {"measurement": "sensitive/resistant (growth)", "setting": "[3]; strain 21 2001, 0.5 μg/ml", "value": "R"},
      {"measurement": "sensitive/resistant (growth)", "setting": "[3]; strain 21 2001, 1 μg/ml", "value": "R"},
      {"measurement": "sensitive/resistant (growth)", "setting": "[3]; strain 21 2001, 2 μg/ml", "value": "R"},
      {"measurement": "sensitive/resistant (growth)", "setting": "[3]; strain 21 2001, 4 μg/ml", "value": "R"},
      {"measurement": "sensitive/resistant (growth)", "setting": "[3]; strain 21 2001, 8 μg/ml", "value": "R"},
      {"measurement": "sensitive/resistant (growth)", "setting": "[3]; strain 21 2001, 16 μg/ml", "value": "R"},
      {"measurement": "sensitive/resistant (growth)", "setting": "[3]; strain 21 2001, 32 μg/ml", "value": "R"},
      {"measurement": "sensitive/resistant (growth)", "setting": "[3]; strain 21 2001, 64 μg/ml", "value": "R"},
      {"measurement": "Colony-forming Units (CFU)", "setting": "Staphylococcus aureus [4]; 0 hr incubation, 2 × MIC", "value": "339 Colony-forming units per plate"},
      {"measurement": "Colony-forming Units (CFU)", "setting": "Staphylococcus aureus [4]; 0 hr incubation, MIC", "value": "352 Colony-forming units per plate"},
      {"measurement": "Colony-forming Units (CFU)", "setting": "Staphylococcus aureus [4]; 6 hr incubation, 2 × MIC", "value": "21 Colony-forming units per plate"},
      {"measurement": "Colony-forming Units (CFU)", "setting": "Staphylococcus aureus [4]; 6 hr incubation, MIC", "value": "45 Colony-forming units per plate"},
      {"measurement": "Colony-forming Units (CFU)", "setting": "Staphylococcus aureus [4]; 12 hr incubation, 2 × MIC", "value": "2 Colony-forming units per plate"},
      {"measurement": "Colony-forming Units (CFU)", "setting": "Staphylococcus aureus [4]; 12 hr incubation, MIC", "value": "1 Colony-forming units per plate"},
      {"measurement": "Colony-forming Units (CFU)", "setting": "Staphylococcus aureus [4]; 24 hr incubation, 2 × MIC", "value": "0 Colony-forming units per plate"},
      {"measurement": "Colony-forming Units (CFU)", "setting": "Staphylococcus aureus [4]; 24 hr incubation, MIC", "value": "2 Colony-forming units per plate"},
      {"measurement": "killing of S. aureus", "setting": "Staphylococcus aureus [4]; in 6 h", "value": 90, "unit": "%"},
      {"measurement": "killing of S. aureus", "setting": "Staphylococcus aureus [4]; in 24 h", "value": 99.9, "unit": "%"},
      {"measurement": "activity against gram negative E. coli", "setting": "E. coli", "value": "neither compound was found to have appreciable activity; also recorded: Neither 1,4 benzoquinone showed activity"},
      {"measurement": "activity against the pathogenic fungus Candida. albicans", "setting": "Candida. albicans", "value": "Neither 1,4 benzoquinone showed activity"},
      {"measurement": "MIC", "setting": "[5]", "value": 4, "unit": "mg/L"},
      {"measurement": "hemolytic activity", "setting": "fresh human erythrocytes", "value": "no erythrocyte hemolysis was observed; also recorded: Neither 1,4 benzoquinone showed hemolytic activity"},
      {"measurement": "intracellular reactive oxygen species (oxidation of DCFH-DA)", "setting": "TE671 muscle cells", "value": "Intracellular oxidation of the DCFH-DA in cells treated with the 1,4 benzoquinones was observed"}
    ]}
  ]
}
